Key:
insoluble tau aggregates = details: J Med Chem, 2009, 52, 3539; cited from earlier work
Aβ1-40 aggregates = biological target: T1, Aβ1-40 aggregates (Homo sapiens, UniProt P05067); assay: In vitro binding assay with aggregated Aβ1-40 (fluorescence); details: aggregated Aβ1-40 10 μg/sample, 1 h at RT, triplicate
T1 construct: Aβ1-40 protein (4.3 kDa, 1 mg/ml, Invitrogen); purchased Invitrogen
Procedure: (§1) Aβ1-40 protein (4.3 kDa, 1 mg/ml, Invitrogen) was incubated at room temperature (RT) for 72 h with continuous shaking to generate Aβ1-40 aggregates. The two test compounds 18 (see Example 6) and 20 (see Example 5), were dissolved and serially diluted in DMSO. Samples with aggregated tau and Aβ1-40 (10 μg/sample) were incubated with a serial dilution of each test compound (concentration range 1 nM-100 μM) in 96-well plates for 1 h at RT. Following incubation, samples were transferred to spin column plates (Thermo Fisher) and then centrifugated for 2 min at 1,500×g to remove free compound from the samples. Finally, the samples were transferred to black 96-well plates, and the fluorescence intensity measured at […] using a Tecan plate reader. All experiments were performed in triplicate. Kd values for each compound was calculated by fitting the data to a non-linear binding curve using Prism (GraphPad).

tau aggregates (Tau-412) = biological target: T2, tau aggregates (Tau-412) (Homo sapiens, UniProt P10636); assay: In vitro binding assay with aggregated tau (fluorescence); details: for Kd: aggregated tau 10 μg/sample, 1 h at RT, triplicate; for Selectivity Tau: Aβ1-40: ratio of Kd Aβ1-40 to Kd tau
T2 construct: purchased Stratech
T2 sequence (P10636 1-412 isoform P10636-7): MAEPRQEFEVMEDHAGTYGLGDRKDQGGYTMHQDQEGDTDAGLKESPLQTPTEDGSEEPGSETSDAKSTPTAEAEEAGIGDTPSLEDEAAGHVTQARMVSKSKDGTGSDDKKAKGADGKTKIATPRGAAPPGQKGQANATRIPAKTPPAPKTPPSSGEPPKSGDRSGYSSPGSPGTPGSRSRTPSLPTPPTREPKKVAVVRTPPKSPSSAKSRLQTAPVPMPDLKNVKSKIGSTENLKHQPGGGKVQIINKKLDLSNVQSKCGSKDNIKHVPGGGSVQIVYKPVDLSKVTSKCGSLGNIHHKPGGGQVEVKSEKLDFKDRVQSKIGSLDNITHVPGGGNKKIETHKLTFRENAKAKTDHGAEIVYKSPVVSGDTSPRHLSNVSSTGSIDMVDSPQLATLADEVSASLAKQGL
Procedure: Tau protein (Tau-412 with 2 nucleotide-binding motifs and 4 repeat binding regions, 42.9 kDa, 1 mg/ml, Stratech) was incubated in the presence of heparin (0.1 mg/ml) for 72 h at 37° C. with continuous shaking to generate tau aggregates.
as §1, with “The” for “Aβ1-40 protein (4.3 kDa, 1 mg/ml, Invitrogen) was incubated at room temperature (RT) for 72 h with continuous shaking to generate Aβ1-40 aggregates. The”

T1 sequence (P05067 672-711 limits assumed): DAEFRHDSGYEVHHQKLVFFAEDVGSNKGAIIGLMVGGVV

SMILES	Tau aggregation inhibition (in words) (insoluble tau aggregates)	Kd (Aβ1-40 aggregates) [µM]	Selectivity for aggregated tau compared to Aβ1-40 aggregates (in words) (tau aggregates (Tau-412))	Kd (tau aggregates (Tau-412)) [µM]	Selectivity Tau: Aβ1-40 (tau aggregates (Tau-412))
CCC(/C=C1\Sc2ccc(OC)cc2N1CCO)=C\c1sc2ccc(OC)cc2[n+]1CCO [Compound N744]	potent tau aggregation inhibitors	–	–	–	–
COc1ccc2c(c1)N(CCO)/C(=C/C(C)=C/c1sc3ccc(OC)cc3[n+]1CCF)S2 [Compound 20, 3-(2-Fluoroethyl)-2-((1E,3Z)-3-(3-(2-hydroxyethyl)-5-methoxybenzo[d]thiazol-2(3H)-ylidene)-2-methylprop-1-en-1-yl)-5-methoxybenzo[d]thiazol-3-ium]	–	15.6 ± 8.1	highly selective	0.00075 ± 0.00059	20,800
COc1ccc2c(c1)N(CCF)/C(=C/C(C)=C/c1sc3ccc(OC)cc3[n+]1CCF)S2 [Compound 18, 3-(2-Fluoroethyl)-2-((1E,3Z)-3-(3-(2-fluoroethyl)-5-methoxybenzo[d]thiazol-2(3H)-ylidene)-2-methylprop-1-en-1-yl)-5-methoxybenzo[d]thiazol-3-ium]	–	29.8 ± 21.3	highly selective	0.00088 ± 0.0009	33,863

From patent US20130230460A1, “USE OF CYANINE DYES FOR THE DETECTION OF TAU FOR DIAGNOSIS OF EARLY-STAGE TAUOPATHIES” (GE HEALTHCARE LIMITED, priority 2010, published 2013)
